Measured values as given in ChEMBL document CHEMBL5724806, “Unraveling interindividual differences and functional consequences of gut microbial metabolism of immunosuppressants” (2024).

Tests used:
Format in all cases: ADME
[1] = (§1) The drug is tested on Bifidobacterium adolescentis strain: DSM20083 for biotransformation under anaerobic condition. The drug concentrations were measured over 6 timepoints collected between 0 and 12 hours of incubation by liquid-chromatography-coupled mass spectrometry (LC–MS); parameters: dose 5 uM, timepoint 0, 1.5, 3, 6, 9, 12 hours; conditions: 5 µM
[2] = The drug is tested on Bifidobacterium longum strain: DSM20088 for biotransformation under anaerobic condition. The drug concentrations were measured over 6 timepoints collected between 0 and 12 hours of incubation by liquid-chromatography-coupled mass spectrometry (LC–MS); parameters: dose 5 uM, timepoint 0, 1.5, 3, 6, 9, 12 hours; conditions: 5 µM
[3] = The drug is tested on Bacteroides fragilis strain: DSM2151 for biotransformation under anaerobic condition. The drug concentrations were measured over 6 timepoints collected between 0 and 12 hours of incubation by liquid-chromatography-coupled mass spectrometry (LC–MS); parameters: dose 5 uM, timepoint 0, 1.5, 3, 6, 9, 12 hours; conditions: 5 µM
[4] = The drug is tested on Bacteroides stercoris strain: HM 1036 for biotransformation under anaerobic condition. The drug concentrations were measured over 6 timepoints collected between 0 and 12 hours of incubation by liquid-chromatography-coupled mass spectrometry (LC–MS); parameters: dose 5 uM, timepoint 0, 1.5, 3, 6, 9, 12 hours; conditions: 5 µM
[5] = The drug is tested on Prevotella copri strain: DSM18205 for biotransformation under anaerobic condition. The drug concentrations were measured over 6 timepoints collected between 0 and 12 hours of incubation by liquid-chromatography-coupled mass spectrometry (LC–MS); parameters: dose 5 uM, timepoint 0, 1.5, 3, 6, 9, 12 hours; conditions: segatella copri, 5 µM
[6] = The drug is tested on Eubacterium eligens strain: DSM3376 for biotransformation under anaerobic condition. The drug concentrations were measured over 6 timepoints collected between 0 and 12 hours of incubation by liquid-chromatography-coupled mass spectrometry (LC–MS); parameters: dose 5 uM, timepoint 0, 1.5, 3, 6, 9, 12 hours; conditions: lachnospira eligens, 5 µM
[7] = The drug is tested on Eubacterium rectale strain: DSM17629 for biotransformation under anaerobic condition. The drug concentrations were measured over 6 timepoints collected between 0 and 12 hours of incubation by liquid-chromatography-coupled mass spectrometry (LC–MS); parameters: dose 5 uM, timepoint 0, 1.5, 3, 6, 9, 12 hours; conditions: agathobacter rectalis, 5 µM
[8] = The drug is tested on Ruminococcus gnavus strain: ATCC29149 for biotransformation under anaerobic condition. The drug concentrations were measured over 6 timepoints collected between 0 and 12 hours of incubation by liquid-chromatography-coupled mass spectrometry (LC–MS); parameters: dose 5 uM, timepoint 0, 1.5, 3, 6, 9, 12 hours; conditions: mediterraneibacter gnavus, 5 µM
[9] = The drug is tested on Streptococcus salivarius strain: DSM20560 for biotransformation under anaerobic condition. The drug concentrations were measured over 6 timepoints collected between 0 and 12 hours of incubation by liquid-chromatography-coupled mass spectrometry (LC–MS); parameters: dose 5 uM, timepoint 0, 1.5, 3, 6, 9, 12 hours; conditions: 5 µM
[10] = (§2) The drug is tested on Actinomyces naeslundi strain: DSM43013 for biotransformation under microaerobic condition. The drug concentrations were measured over 6 timepoints collected between 0 and 12 hours of incubation by liquid-chromatography-coupled mass spectrometry (LC–MS); parameters: dose 5 uM, timepoint 0, 1.5, 3, 6, 9, 12 hours; conditions: actinomyces naeslundii, 5 µM
[11] = The drug is tested on Capnocytophaga ochracea strain: DSM7271 for biotransformation under microaerobic condition. The drug concentrations were measured over 6 timepoints collected between 0 and 12 hours of incubation by liquid-chromatography-coupled mass spectrometry (LC–MS); parameters: dose 5 uM, timepoint 0, 1.5, 3, 6, 9, 12 hours; conditions: 5 µM
[12] = The drug is tested on Gemella haemolysans strain: DSM107751 for biotransformation under microaerobic condition. The drug concentrations were measured over 6 timepoints collected between 0 and 12 hours of incubation by liquid-chromatography-coupled mass spectrometry (LC–MS); parameters: dose 5 uM, timepoint 0, 1.5, 3, 6, 9, 12 hours; conditions: 5 µM
[13] = The drug is tested on Lactobacillus paracasei strain: ATCC27092 for biotransformation under microaerobic condition. The drug concentrations were measured over 6 timepoints collected between 0 and 12 hours of incubation by liquid-chromatography-coupled mass spectrometry (LC–MS); parameters: dose 5 uM, timepoint 0, 1.5, 3, 6, 9, 12 hours; conditions: lacticaseibacillus paracasei, 5 µM
[14] = The drug is tested on Streptococcus salivarius strain: DSM20560 for biotransformation under microaerobic condition. The drug concentrations were measured over 6 timepoints collected between 0 and 12 hours of incubation by liquid-chromatography-coupled mass spectrometry (LC–MS); parameters: dose 5 uM, timepoint 0, 1.5, 3, 6, 9, 12 hours; conditions: 5 µM
[15] = as §1, with “the gut metagenome community of A-06 with ENA study accession number: PRJEB31790” for “Bifidobacterium adolescentis strain: DSM20083”, “7” for “6”; parameters: dose 5 uM, timepoint 0, 0.75, 1.5, 3, 6, 9, 12 hours; conditions: 5 µM
[16] = as §1, with “the gut metagenome community of A-08 with ENA study accession number: PRJEB31790” for “Bifidobacterium adolescentis strain: DSM20083”, “7” for “6”; parameters: dose 5 uM, timepoint 0, 0.75, 1.5, 3, 6, 9, 12 hours; conditions: 5 µM
[17] = as §1, with “the gut metagenome community of P-04 with ENA study accession number: PRJEB31790” for “Bifidobacterium adolescentis strain: DSM20083”, “7” for “6”; parameters: dose 5 uM, timepoint 0, 0.75, 1.5, 3, 6, 9, 12 hours; conditions: 5 µM
[18] = as §1, with “the gut metagenome community of T-01 with ENA study accession number: PRJEB31790” for “Bifidobacterium adolescentis strain: DSM20083”, “7” for “6”; parameters: dose 5 uM, timepoint 0, 0.75, 1.5, 3, 6, 9, 12 hours; conditions: 5 µM
[19] = as §1, with “the gut metagenome community of T-04 with ENA study accession number: PRJEB31790” for “Bifidobacterium adolescentis strain: DSM20083”, “7” for “6”; parameters: dose 5 uM, timepoint 0, 0.75, 1.5, 3, 6, 9, 12 hours; conditions: 5 µM
[20] = as §1, with “the gut metagenome community of T-05 with ENA study accession number: PRJEB31790” for “Bifidobacterium adolescentis strain: DSM20083”, “7” for “6”; parameters: dose 5 uM, timepoint 0, 0.75, 1.5, 3, 6, 9, 12 hours; conditions: 5 µM
[21] = as §2, with “the gut metagenome community of A-04 with ENA study accession number: PRJEB31790” for “Actinomyces naeslundi strain: DSM43013”, “7” for “6”; parameters: dose 5 uM, timepoint 0, 0.75, 1.5, 3, 6, 9, 12 hours; conditions: 5 µM
[22] = as §2, with “the gut metagenome community of A-05 with ENA study accession number: PRJEB31790” for “Actinomyces naeslundi strain: DSM43013”, “7” for “6”; parameters: dose 5 uM, timepoint 0, 0.75, 1.5, 3, 6, 9, 12 hours; conditions: 5 µM
[23] = as §2, with “the gut metagenome community of A-07 with ENA study accession number: PRJEB31790” for “Actinomyces naeslundi strain: DSM43013”, “7” for “6”; parameters: dose 5 uM, timepoint 0, 0.75, 1.5, 3, 6, 9, 12 hours; conditions: 5 µM
[24] = as §2, with “the gut metagenome community of A-09 with ENA study accession number: PRJEB31790” for “Actinomyces naeslundi strain: DSM43013”, “7” for “6”; parameters: dose 5 uM, timepoint 0, 0.75, 1.5, 3, 6, 9, 12 hours; conditions: 5 µM
[25] = as §2, with “the gut metagenome community of P-01 with ENA study accession number: PRJEB31790” for “Actinomyces naeslundi strain: DSM43013”, “7” for “6”; parameters: dose 5 uM, timepoint 0, 0.75, 1.5, 3, 6, 9, 12 hours; conditions: 5 µM
[26] = as §2, with “the gut metagenome community of P-02 with ENA study accession number: PRJEB31790” for “Actinomyces naeslundi strain: DSM43013”, “7” for “6”; parameters: dose 5 uM, timepoint 0, 0.75, 1.5, 3, 6, 9, 12 hours; conditions: 5 µM
[27] = as §2, with “the gut metagenome community of P-03 with ENA study accession number: PRJEB31790” for “Actinomyces naeslundi strain: DSM43013”, “7” for “6”; parameters: dose 5 uM, timepoint 0, 0.75, 1.5, 3, 6, 9, 12 hours; conditions: 5 µM
[28] = as §2, with “the gut metagenome community of T-01 with ENA study accession number: PRJEB31790” for “Actinomyces naeslundi strain: DSM43013”, “7” for “6”; parameters: dose 5 uM, timepoint 0, 0.75, 1.5, 3, 6, 9, 12 hours; conditions: 5 µM
[29] = as §2, with “the gut metagenome community of T-02 with ENA study accession number: PRJEB31790” for “Actinomyces naeslundi strain: DSM43013”, “7” for “6”; parameters: dose 5 uM, timepoint 0, 0.75, 1.5, 3, 6, 9, 12 hours; conditions: 5 µM
[30] = as §2, with “the gut metagenome community of T-04 with ENA study accession number: PRJEB31790” for “Actinomyces naeslundi strain: DSM43013”, “7” for “6”; parameters: dose 5 uM, timepoint 0, 0.75, 1.5, 3, 6, 9, 12 hours; conditions: 5 µM
[31] = as §2, with “the gut metagenome community of T-05 with ENA study accession number: PRJEB31790” for “Actinomyces naeslundi strain: DSM43013”, “7” for “6”; parameters: dose 5 uM, timepoint 0, 0.75, 1.5, 3, 6, 9, 12 hours; conditions: 5 µM

Bacterial Biotransformation [1] | Bacterial Biotransformation [2] | Bacterial Biotransformation [3] | Bacterial Biotransformation [4] | Bacterial Biotransformation [5] | Bacterial Biotransformation [6] | Bacterial Biotransformation [7] | Bacterial Biotransformation [8] | Bacterial Biotransformation [9] | Bacterial Biotransformation [10] | Bacterial Biotransformation [11] | Bacterial Biotransformation [13] | Bacterial Biotransformation [14] | Bacterial Biotransformation [15] | Bacterial Biotransformation [16] | Bacterial Biotransformation [17] | Bacterial Biotransformation [18] | Bacterial Biotransformation [19] | Bacterial Biotransformation [20] | Compound | Bacterial Biotransformation [12] | further results
Compound NOT metabolized | Compound NOT metabolized | Compound NOT metabolized | Compound NOT metabolized | Compound NOT metabolized | Compound NOT metabolized | Compound NOT metabolized | Compound NOT metabolized | Compound NOT metabolized | Compound NOT metabolized | Compound NOT metabolized | Compound NOT metabolized | Compound NOT metabolized | Compound NOT metabolized | Compound NOT metabolized | Compound NOT metabolized | Compound NOT metabolized | Compound NOT metabolized | Compound NOT metabolized | NS(=O)(=O)c1cc(C(=O)O)c(NCc2ccco2)cc1Cl [FUROSEMIDE] | Compound NOT metabolized | Bacterial Biotransformation [21]: Compound NOT metabolized; Bacterial Biotransformation [22]: Compound NOT metabolized; Bacterial Biotransformation [23]: Compound NOT metabolized; Bacterial Biotransformation [24]: Compound NOT metabolized; Bacterial Biotransformation [25]: Compound NOT metabolized; Bacterial Biotransformation [26]: Compound NOT metabolized; Bacterial Biotransformation [27]: Compound NOT metabolized; Bacterial Biotransformation [28]: Compound NOT metabolized; Bacterial Biotransformation [29]: Compound NOT metabolized; Bacterial Biotransformation [30]: Compound NOT metabolized; Bacterial Biotransformation [31]: Compound NOT metabolized
Compound NOT metabolized | Compound NOT metabolized | Compound NOT metabolized | Compound NOT metabolized | Compound NOT metabolized | Compound NOT metabolized | Compound NOT metabolized | Compound metabolized | Compound NOT metabolized | Compound NOT metabolized | Compound NOT metabolized | Compound NOT metabolized | Compound metabolized | Compound metabolized | Compound metabolized | Compound metabolized | Compound metabolized | Compound NOT metabolized | Compound metabolized | C[C@]12CCC(=O)C=C1CC[C@@H]1[C@@H]2[C@@H](O)C[C@@]2(C)[C@H]1CC[C@]2(O)C(=O)CO [HYDROCORTISONE] | Compound NOT metabolized | Bacterial Biotransformation [21]: Compound metabolized; Bacterial Biotransformation [22]: Compound metabolized; Bacterial Biotransformation [23]: Compound metabolized; Bacterial Biotransformation [24]: Compound metabolized; Bacterial Biotransformation [25]: Compound metabolized; Bacterial Biotransformation [26]: Compound NOT metabolized; Bacterial Biotransformation [27]: Compound metabolized; Bacterial Biotransformation [28]: Compound metabolized; Bacterial Biotransformation [29]: Compound metabolized; Bacterial Biotransformation [30]: Compound NOT metabolized; Bacterial Biotransformation [31]: Compound metabolized
Compound NOT metabolized | Compound NOT metabolized | Compound NOT metabolized | Compound NOT metabolized | Compound NOT metabolized | Compound NOT metabolized | Compound NOT metabolized | Compound NOT metabolized | Compound NOT metabolized | Compound NOT metabolized | Compound NOT metabolized | Compound NOT metabolized | Compound NOT metabolized | Compound metabolized | Compound metabolized | Compound NOT metabolized | Compound NOT metabolized | Compound NOT metabolized | Compound metabolized | CN(Cc1cnc2nc(N)nc(N)c2n1)c1ccc(C(=O)N[C@@H](CCC(=O)O)C(=O)O)cc1 [METHOTREXATE] | Compound NOT metabolized | Bacterial Biotransformation [21]: Compound metabolized; Bacterial Biotransformation [22]: Compound NOT metabolized; Bacterial Biotransformation [23]: Compound metabolized; Bacterial Biotransformation [24]: Compound metabolized; Bacterial Biotransformation [25]: Compound NOT metabolized; Bacterial Biotransformation [26]: Compound NOT metabolized; Bacterial Biotransformation [27]: Compound NOT metabolized; Bacterial Biotransformation [28]: Compound metabolized; Bacterial Biotransformation [29]: Compound metabolized; Bacterial Biotransformation [30]: Compound NOT metabolized; Bacterial Biotransformation [31]: Compound metabolized
